Reference: publication PMC12689286, “Enhanced therapeutics of cabazitaxel via polycarboxylate conjugation: improved solubility, safety, and antitumor efficacy” (Frontiers in Immunology, 2025)

Columns and labels:
[1] = Lipid-aqueous (octanol/water) partition coefficient; assay type: physicochemical; details: room temperature
Method: CTXs were dissolved in octanol, and an equal volume of water was added, followed by shaken at 100 rpm for 24 h at room temperature. The upper octanol phase and lower water phase were separated by centrifugation. The supernatant was analyzed by HPLC (Bruker SolanX 70 FT-MS; Agilent 6540TOF) ([21]).

A549 = test: MTS cytotoxicity, A549; assay type: cell-based; details: Homo sapiens
Method: (§1) Human cancer cell lines were cultured in basic medium (10% fetal bovine serum (FBS)+1% double antibody solution) (Biological Industries) at 37°C in a 5% CO2 incubator. Effects of CTXs on cell proliferation and viability were measured by an MTS (Promega Corporation) assay. Absorbance values at 490 nm were measured using a microplate reader (Thermo Scientific, Varioskan Flash) ([22]).

Bel-7402 = test: MTS cytotoxicity, Bel-7402; assay type: cell-based; details: Homo sapiens; Bel-7402, MTS
Method: as §1

HT-29 = test: MTS cytotoxicity, HT-29; assay type: cell-based; details: Homo sapiens; HT-29, MTS
Method: as §1

LN229 = test: MTS cytotoxicity, LN229; assay type: cell-based; details: Homo sapiens, LN-229
Method: as §1

[2] = test system: DU145 prostate cancer model; test: DU145 prostate cancer xenograft, tumor volume; assay type: in vivo, BALB/c nude mice; details: 3 μmol/kg tail vein, three times at 3-day intervals, control 500 ± 45 mm³
Method: (§2) All animal experiments were conducted in accordance with protocols approved by the Institutional Animal Care and Use Committee of Peking Union Medical College. Male BALB/c nude mice (6–8 weeks old) and female KM mice (6–8 weeks old) were purchased from Charles River Laboratories (Beijing, China) and maintained under specific pathogen-free conditions.
(§3) DU145 Prostate cancer model: DU145 cells (3×10^6 cells/mouse) were subcutaneously inoculated into the right flank of BALB/c nude mic. When tumors reached approximately 100 mm³, mice were randomly divided into four treatment groups (n=6/group): (a) Vehicle control; (b) CTX (3 μmol/kg); (c) CTX-TTHA (3 μmol/kg); (d) CTX-DTPA (3 μmol/kg). Treatments were administered via tail vein injection three times at 3-day intervals. Major organs were collected for histopathological examination after the final administration.

[3] = DU145 xenograft model, body weight; assay type: in vivo, BALB/c nude mice; details: 3 μmol/kg, by day 7
Method: as §2, §3

[4] = MCF-7 xenograft model, survival; assay type: in vivo, BALB/c nude mice; details: MCF-7 model, 9.6 μmol/kg, n=6
Method: as §2
MCF-7 Breast Cancer Model: Female BALB/c nude mice bearing MCF-7 xenografts (2×10^6 cells/mouse) were randomized into treatment groups as described above, with an adjusted dose of 9.6 μmol/kg for all CTX formulations.

[5] = Systemic toxicity in H22 tumor-bearing mice (body weight, blood count); assay type: in vivo, KM mice
Method: H22 hepatoma model: Female KM mice were subcutaneously implanted with H22 cells (2×10^6 cells/mouse) and assigned to six groups: (a) Vehicle control; (b) CTX (9.6 μmol/kg in 5% glucose with 2.5% ethanol/2.5% Tween 80); (c) CTX-TTHA (9.6 μmol/kg in saline); (d) CTX-DTPA (9.6 μmol/kg in saline); (e) CTX-TTHA (19.1 μmol/kg in saline); (f) CTX-DTPA (19.1 μmol/kg in saline).
Treatments were administered every other day for four doses (three doses for CTX group due to weight loss >15%). Peripheral blood samples were collected for complete blood count analysis using an automated hematology analyzer.

[6] = Plasma pharmacokinetics (non-compartmental); details: for AUC(0-t) / Cmax / Vd / clearance: both, SD, rat, iv, 6 umol/kg
Method: Male and female SD rats (200–220 g) received intravenous injections of CTX or CTX-DTPA (6 μmol/kg). CTX was dissolved in 2.5% Tween 80/2.5% EtOH/saline, while CTX-DTPA used saline alone. Blood samples were collected at 5 min to 24 h post-dose. Tissues (heart, liver, spleen, lung, kidney, thymus) and excreta were collected at 15 min, 2 h, 4 h, and 12 h. Plasma and tissue samples were processed by liquid-liquid extraction with n-butanol and analyzed via LC-MS/MS (Agilent Poroshell 120 EC-C18 column; 0.05% formic acid/acetonitrile gradient). Pharmacokinetic parameters were calculated using DAS 2.0 via non-compartmental analysis.

Excretion (urine, feces) = assay type: in vivo; details: SD rats, 6 μmol/kg iv
Method: Male and female SD rats (200–220 g) received intravenous injections of CTX or CTX-DTPA (6 μmol/kg). […] Blood samples were collected at 5 min to 24 h post-dose. Tissues (heart, liver, spleen, lung, kidney, thymus) and excreta were collected at 15 min, 2 h, 4 h, and 12 h. Plasma and tissue samples were processed by liquid-liquid extraction with n-butanol and analyzed via LC-MS/MS (Agilent Poroshell 120 EC-C18 column; 0.05% formic acid/acetonitrile gradient). Pharmacokinetic parameters were calculated using DAS 2.0 via non-compartmental analysis.

tubulin = target: T1, tubulin (Sus scrofa, UniProt P02554); test: Purified tubulin polymerization; assay type: biochemical; details: purified tubulin 3 mg/ml, 37°C
T1 construct: purchased Cytoskeleton BK006P
Method: A tubulin polymerization assay kit (Cytoskeleton, BK006P) was used. Briefly, 10 μl of CTXs with a concentration of 100 μM in the general tubulin buffer and 100 μl of tubulin (3 mg/ml) in TP buffer were added on ice. The 96-well plate was immediately placed in a microplate reader at 37°C.

[7] = test system: rat red blood cells (RBCs); test: Hemolysis test; assay type: cell-based, SD rats; details: vs unmodified CTX
Method: The hemolytic potential of CTX formulations was evaluated using rat red blood cells (RBCs). Briefly, whole blood was collected from the abdominal aorta of anesthetized SD rats into ACD anticoagulant (blood:ACD = 1:4, v/v). The blood was diluted with normal saline (4:5, v/v) and centrifuged at 450 g for 10 min. The RBC pellet was washed three times with normal saline until the supernatant was clear. The washed RBCs were then resuspended in normal saline to prepare a 2% (v/v) suspension.
For the assay, 500 μL of the 2% RBC suspension was mixed with an equal volume of serially diluted drugs or controls in 1.5 mL tubes. The controls included: Negative control (0% hemolysis): normal saline. Positive control (100% hemolysis): distilled water. Solvent control: the vehicle for unmodified CTX (2.5% Tween 80 + 2.5% anhydrous ethanol + 95% normal saline). The mixtures were incubated at 37 °C for 1.5 h and then centrifuged at 450 g for 5 min. Subsequently, 150 μL of the supernatant from each tube was transferred to a 96-well plate, and the absorbance at 545 nm (OD545) was measured using a microplate reader. The percentage of hemolysis was calculated using the following formula: Hemolysis (%) = [(ODsample - ODnegative control)/(ODpositive control - ODnegative control)] × 100.

[8] = SD rats, 6 μmol/kg iv, plasma, dosed compound itself

T1 sequence (P02554 whole entry): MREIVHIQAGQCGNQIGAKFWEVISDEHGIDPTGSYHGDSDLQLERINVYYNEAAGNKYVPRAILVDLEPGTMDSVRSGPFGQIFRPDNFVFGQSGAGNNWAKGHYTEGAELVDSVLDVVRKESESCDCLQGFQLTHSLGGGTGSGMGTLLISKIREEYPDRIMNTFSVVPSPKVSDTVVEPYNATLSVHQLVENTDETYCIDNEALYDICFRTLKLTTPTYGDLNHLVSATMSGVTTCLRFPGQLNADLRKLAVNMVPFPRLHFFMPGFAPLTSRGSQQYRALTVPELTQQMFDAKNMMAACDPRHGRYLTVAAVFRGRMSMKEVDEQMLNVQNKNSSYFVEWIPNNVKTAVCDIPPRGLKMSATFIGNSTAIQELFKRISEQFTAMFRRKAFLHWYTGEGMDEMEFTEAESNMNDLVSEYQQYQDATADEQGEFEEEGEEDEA
T1 sequence (P02550 whole entry partner): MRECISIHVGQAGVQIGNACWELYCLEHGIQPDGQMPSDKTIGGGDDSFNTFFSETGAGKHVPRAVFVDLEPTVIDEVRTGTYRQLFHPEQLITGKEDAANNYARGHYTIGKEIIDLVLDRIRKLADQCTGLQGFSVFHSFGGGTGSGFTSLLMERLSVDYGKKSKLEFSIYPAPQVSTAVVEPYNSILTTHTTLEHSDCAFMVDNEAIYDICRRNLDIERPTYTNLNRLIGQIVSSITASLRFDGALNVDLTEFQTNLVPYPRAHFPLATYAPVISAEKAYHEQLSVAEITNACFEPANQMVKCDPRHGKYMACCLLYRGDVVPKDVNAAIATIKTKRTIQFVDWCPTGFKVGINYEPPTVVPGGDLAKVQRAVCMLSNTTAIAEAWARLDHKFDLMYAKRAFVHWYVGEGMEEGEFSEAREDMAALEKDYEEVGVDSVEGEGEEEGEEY

With `CO[C@H]1C(=O)[C@]2(C)[C@@H](OC)C[C@H]3OC[C@@]3(OC(C)=O)[C@H]2[C@H](OC(=O)c2ccccc2)[C@]2(O)C[C@H](OC(=O)[C@H](O)[C@@H](NC(=O)OC(C)(C)C)c3ccccc3)C(C)=C1C2(C)C` [CTX, Cabazitaxel] the logP at 24 h [1] was 4.55 ± 0.1, the IC50 (A549) was 2.5 ± 1.2 nM and the IC50 (Bel-7402) was 2.8 ± 0.5 nM. For the same compound, the IC50 (HT-29) was 7.4 ± 3.4 nM, the IC50 (LN229) was 8.5 ± 2.3 nM and the final tumor volume [2] was 254 ± 35 mm³. For the same compound, the body weight loss [3] was over 15%, the survival [4] was 83.3% and the “white blood cell count” value ([5]; H22 mice, day 7 post-treatment, controls 4.46 ± 1.19) was 1.55 ± 0.17 ×10^9/L. The body weight loss ([5]; H22 tumor-bearing mice, 9.6 μmol/kg) was 11-16%, the MRT0-t [6, 8] was 0.67 ± 0.09 H and the t1/2 [6, 8] was 1.27 ± 0.09 H. It also gave an AUC(0-t) ([6]; plasma) of 1680 ± 194 ng·h/mL, a Cmax ([6]; plasma) of 2930 ± 990 ng/mL and a Vd ([6]; plasma) of 5.53 ± 0.81 L/kg. For the same compound, the clearance ([6]; plasma) was 50.2 mL/min/kg and the “total excretion of administered dose” value (Excretion (urine, feces); in 24 h) was < 1 % of dose.

For `COC1C(=O)C2(C)C(OC)CC3OCC3(OC(C)=O)C2C(OC(=O)c2ccccc2)C2(O)CC(OC(=O)C(OC(=O)CN(CCN(CCN(CC(=O)O)CC(=O)O)CC(=O)O)CC(=O)O)C(NC(=O)OC(C)(C)C)c3ccccc3)C(C)=C1C2(C)C` (stereo not shown) [CTX-DTPA], the logP at 24 h [1] was 0.49 ± 0.12, the IC50 (A549) was 3 ± 1.1 nM and the IC50 (Bel-7402) was 2.9 ± 0.9 nM. For the same compound, the IC50 (HT-29) was 6.7 ± 2.9 nM, the IC50 (LN229) was 5.8 ± 2.2 nM and the polymerization kinetics (tubulin) was 43.7 ± 8.0 mOD/min. The “improvement in hemocompatibility over unmodified CTX” value [7] was 64 fold, the final tumor volume [2] was 244 ± 32 mm³ and the WBC counts ([5]; H22 mice, throughout treatment, across all dose groups (9.6 and 19.1 μmol/kg)) was 3.50-5.60 ×10^9/L. For the same compound, the “elimination half-life relative to CTX” value ([6]; SD rats, 6 μmol/kg iv, longer than CTX) was 5.1 fold, the MRT0-t [6, 8] was 1.04 ± 0.57 H and the AUC(0-t) ([6]; in vivo) was 1330 ± 777 ng·h/mL. It also gave a Cmax ([6]; in vivo) of 4360 ± 2880 ng/mL, a Vd ([6]; in vivo) of 69.9 L/kg and a clearance ([6]; in vivo) of 126 mL/min/kg. The “urinary excretion of intact CTX-DTPA” value (Excretion (urine, feces); cumulative) was 2191.14 ± 853.66 µg/kg and the renal excretion (Excretion (urine, feces); within 24 hours) was 39.8 ± 12.7%.
